According to US10532980B2, “N-methyl pyrazoles” (Prosetta Antiviral, Inc., priority 2015, dated 2020):

Test system: Influenza A virus (A/WSN/1933(H1N1))
Experiment: microbe, parasite or virus in culture
Format: cell-based
Settings: MDCK, 24 h with compound, then 2 h drug-free medium

SMILES	EC90 [nM]
Cn1nc(C2CC2)cc1C(=O)NCc1cccc(C(F)(F)F)c1F [Compound 1, 3-cyclopropyl-N-(2-fluoro-3-(trifluoromethyl)benzyl)-1-methyl-1H-pyrazole-5-carboxamide]	400
CC(C)c1cc(C(=O)NCc2cccc(C(F)(F)F)c2F)n(C)n1 [Compound 2, N-(2 fluoro-3-(trifluoromethyl)benzyl)-3-isopropyl-1-methyl-1H pyrazole-5-carboxamide]	100
Cn1nc(C2CC2)cc1C(=O)NCc1cccc(C(F)(F)F)c1Cl [Compound 3, N-(2-chloro-3-(trifluoromethyl)benzyl)-3-cyclopropyl-1-methyl-1H-pyrazole-5-carboxamide]	1100
CC(C)c1cc(C(=O)NCc2cccc(C(F)(F)F)c2Cl)n(C)n1 [Compound 4, N-(2-chloro-3-(trifluoromethyl)benzyl)-3-isopropyl-1-methyl-1H-pyrazole-5-carboxamide]	100
COc1cc(CNC(=O)c2cc(C(C)(C)C)nn2C)ccc1Cl [Compound 5, 3-(tert-butyl)-N-(4-chloro-3-methoxybenzyl)-1-methyl-1H-pyrazole-5-carboxamide]	1500
COc1cc(CNC(=O)c2cc(C3CC3)nn2C)ccc1Cl [Compound 6, N-(4-chloro-3-methoxybenzyl)-3-cyclopropyl-1-methyl-1H-pyrazole-5-carboxamide]	1500
Cn1nc(C(C)(C)C)cc1C(=O)NCc1cccc(OC(F)(F)F)c1F [Compound 7, 3-(tert-butyl)-N-(2-fluoro-3-(trifluoromethoxy)benzyl)-1-methyl-1H-pyrazole-5-carboxamide]	1800
Cn1nc(C2CC2)cc1C(=O)NCc1cccc(OC(F)(F)F)c1F [Compound 8, 3-cyclopropyl-N-(2-fluoro-3-(trifluoromethoxy)benzyl)-1-methyl-1H-pyrazole-5-carboxamide]	1500
CC(C)c1cc(C(=O)NCc2cccc(OC(F)(F)F)c2F)n(C)n1 [Compound 9, N-(2-fluoro-3-(trifluoromethoxy)benzyl)-3-isopropyl-1-methyl-1H-pyrazole-5-carboxamide]	400
Cn1nc(C2CC2)cc1C(=O)NCc1cccc(OCC2CC2)c1F [Compound 10, 3-cyclopropyl-N-(3-(cyclopropylmethoxy)-2-fluorobenzyl)-1-methyl-1H-pyrazole-5-carboxamide]	100
Cc1ccc(CNC(=O)c2cc(C(C)(C)C)nn2C)cc1Cl [Compound 11, 3-(tert-butyl)-N-(3-chloro-4-methylbenzyl)-1-methyl-1H-pyrazole-5-carboxamide]	1500
COc1ccc(CNC(=O)c2cc(C(C)(C)C)nn2C)cc1Cl [Compound 12, 3-(tert-butyl)-N-(3-chloro-4-methoxybenzyl)-1-methyl-1H-pyrazole-5-carboxamide]	1800
CCCOc1ccc(CNC(=O)c2cc(C(C)C)nn2C)cc1Cl [Compound 13, N-(3-chloro-4-propoxybenzyl)-3-isopropyl-1-methyl-1H-pyrazole-5-carboxamide]	400
Cn1nc(C2CC2)cc1C(=O)NCc1ccc(OCC2CC2)c(Cl)c1 [Compound 14, N-(3-chloro-4-(cyclopropylmethoxy)benzyl)-3-cyclopropyl-1-methyl-1H-pyrazole-5-carboxamide]	400
CC(C)c1cc(C(=O)NCc2ccc(OCC3CC3)c(Cl)c2)n(C)n1 [Compound 15, N-(3-chloro-4-(cyclopropylmethoxy)benzyl)-3-isopropyl-1-methyl-1H-pyrazole-5-carboxamide]	400
CCOc1ccc(CNC(=O)c2cc(C(C)(C)C)nn2C)cc1Br [Compound 16, N-(3-bromo-4-ethoxybenzyl)-3-(tert-butyl)-1-methyl-1H-pyrazole-5-carboxamide]	1000
CCOc1ccc(CNC(=O)c2cc(C(C)C)nn2C)cc1Br [Compound 17, N-(3-bromo-4-ethoxybenzyl)-3-isopropyl-1-methyl-1H-pyrazole-5-carboxamide]	400
COc1c(Br)cccc1CNC(=O)c1cc(C2CC2)nn1C [Compound 18, N-(3-bromo-2-methoxybenzyl)-3-cyclopropyl-1-methyl-1H-pyrazole-5-carboxamide]	1500
Cc1c(F)cccc1CNC(=O)c1cc(C2CC2)nn1C [Compound 19, 3-cyclopropyl-N-(3-fluoro-2-methylbenzyl)-1-methyl-1H-pyrazole-5-carboxamide]	1500
Cc1cccc(CNC(=O)c2cc(C3CC3)nn2C)c1C [Compound 20, 3-cyclopropyl-N-(2,3-dimethylbenzyl)-1-methyl-1H-pyrazole-5-carboxamide]	1500
Cc1cccc(CNC(=O)c2cc(C3CC3)nn2C)c1OC(F)F [Compound 21, 3-cyclopropyl-N-(2-(difluoromethoxy)-3-methylbenzyl)-1-methyl-1H-pyrazole-5-carboxamide]	2000
Cc1c(CNC(=O)c2cc(C3CC3)nn2C)cccc1C(F)(F)F [Compound 22, 3-cyclopropyl-1-methyl-N-(2-methyl-3-(trifluoromethyl)benzyl)-1H-pyrazole-5-carboxamide]	300

SMILES	EC90 [nM]
COc1c(CNC(=O)c2cc(C3CC3)nn2C)cccc1C(F)(F)F [Compound 24, 3-cyclopropyl-N-(2-methoxy-3-(trifluoromethyl)benzyl)-1-methyl-1H-pyrazole-5-carboxamide]	200
COc1c(CNC(=O)c2cc(C(C)C)nn2C)cccc1C(F)(F)F [Compound 25, 3-isopropyl-N-(2-methoxy-3-(trifluoromethyl)benzyl)-1-methyl-1H-pyrazole-5-carboxamide]	400
COc1ccc(CNC(=O)c2cc(C3CC3)nn2C)cc1C(F)(F)F [Compound 26, 3-cyclopropyl-N-(4-methoxy-3-(trifluoromethyl)benzyl)-1-methyl-1H-pyrazole-5-carboxamide]	800
COc1cc(CNC(=O)c2cc(C(C)(C)C)nn2C)ccc1C [Compound 27, 3-(tert-butyl)-N-(3-methoxy-4-methylbenzyl)-1-methyl-1H-pyrazole-5-carboxamide]	1500
COc1cccc(CNC(=O)c2cc(C3CC3)nn2C)c1C [Compound 28, 3-cyclopropyl-N-(3-methoxy-2-methylbenzyl)-1-methyl-1H-pyrazole-5-carboxamide]	1500
COc1cccc(CNC(=O)c2cc(C(C)C)nn2C)c1C [Compound 29, 3-isopropyl-N-(3-methoxy-2-methylbenzyl)-1-methyl-1H-pyrazole-5-carboxamide]	1500
COc1cccc(CNC(=O)c2cc(C3CC3)nn2C)c1C(F)(F)F [Compound 30, 3-cyclopropyl-N-(3-methoxy-2-(trifluoromethyl)benzyl)-1-methyl-1H-pyrazole-5-carboxamide]	300
COc1cccc(CNC(=O)c2cc(C(C)(C)C)nn2C)c1O [Compound 31, 3-(tert-butyl)-N-(2-hydroxy-3-methoxybenzyl)-1-methyl-1H-pyrazole-5-carboxamide]	1000
COc1cccc(CNC(=O)c2cc(C(C)C)nn2C)c1OC [Compound 32, N-(2,3-dimethoxybenzyl)-3-isopropyl-1-methyl-1H-pyrazole-5-carboxamide]	1000
CCCOc1c(CNC(=O)c2cc(C3CC3)nn2C)cccc1OC [Compound 33, 3-cyclopropyl-N-(3-methoxy-2-propoxybenzyl)-1-methyl-1H-pyrazole-5-carboxamide]	1500
Cn1nc(C(C)(C)C)cc1C(=O)NCc1cccc(OC(F)(F)F)c1O [Compound 34, 3-(tert-butyl)-N-(2-hydroxy-3-(trifluoromethoxy)benzyl)-1-methyl-1H-pyrazole-5-carboxamide]	1200
COc1c(CNC(=O)c2cc(C(C)(C)C)nn2C)cccc1OC(F)(F)F [Compound 35, 3-(tert-butyl)-N-(2-methoxy-3-(trifluoromethoxy)benzyl)-1-methyl-1H-pyrazole-5-carboxamide]	200
COc1c(CNC(=O)c2cc(C3CC3)nn2C)cccc1OC(F)(F)F [Compound 36, 3-cyclopropyl-N-(2-methoxy-3-(trifluoromethoxy)benzyl)-1-methyl-1H-pyrazole-5-carboxamide]	100
CCOc1cccc(CNC(=O)c2cc(C(C)(C)C)nn2C)c1OC(F)F [Compound 37, 3-(tert-butyl)-N-(2-(difluoromethoxy)-3-ethoxybenzyl)-1-methyl-1H-pyrazole-5-carboxamide]	100
CCOc1cccc(CNC(=O)c2cc(C3CC3)nn2C)c1OC(F)F [Compound 38, 3-cyclopropyl-N-(2-(difluoromethoxy)-3-ethoxybenzyl)-1-methyl-1H-pyrazole-5-carboxamide]	100
COc1c(CNC(=O)c2cc(C3CC3)nn2C)cccc1OCC1CCCC1 [Compound 39, N-(3-(cyclopentylmethoxy)-2-methoxybenzyl)-3-cyclopropyl-1-methyl-1H-pyrazole-5-carboxamide]	100
Cc1cc(CNC(=O)c2cc(C(C)C)nn2C)cc(C)c1OC(F)F [Compound 40, N-(4-(difluoromethoxy)-3,5-dimethylbenzyl)-3-isopropyl-1-methyl-1H-pyrazole-5-carboxamide]	400
CCOc1c(Br)cc(CNC(=O)c2cc(C3CC3)nn2C)cc1OC [Compound 41, N-(3-bromo-4-ethoxy-5-methoxybenzyl)-3-cyclopropyl-1-methyl-1H-pyrazole-5-carboxamide]	400
CCCOc1c(Cl)cc(CNC(=O)c2cc(C(C)C)nn2C)cc1OC [Compound 42, N-(3-chloro-4-propoxy-5-methoxybenzyl)-3-isopropyl-1-methyl-1H-pyrazole-5-carboxamide]	200
CCOc1c(F)cc(CNC(=O)c2cc(C3CC3)nn2C)cc1Cl [Compound 43, N-(3-chloro-4-ethoxy-5-fluorobenzyl)-3-cyclopropyl-1-methyl-1H-pyrazole-5-carboxamide]	400
CCOc1cc(F)c(CNC(=O)c2cc(C3CC3)nn2C)cc1Cl [Compound 44, N-(5-chloro-4-ethoxy-2-fluorobenzyl)-3-cyclopropyl-1-methyl-1H-pyrazole-5-carboxamide]	400
